Test: xn = mol fraction of the nth substance listed
Settings: Liquid, Bellows volumetry

C=CC [propene] + Cc1ccccc1
Settings	mass density [kg/m3]
295.7 K, 700 kPa, x1 = 0.53	679.7
295.7 K, 1000 kPa, x1 = 0.53	680.5
295.7 K, 1400 kPa, x1 = 0.53	681.2
295.7 K, 1900 kPa, x1 = 0.53	681.6
295.7 K, 2300 kPa, x1 = 0.53	682.4
295.7 K, 2900 kPa, x1 = 0.53	683.2
295.7 K, 3400 kPa, x1 = 0.53	684
295.7 K, 3600 kPa, x1 = 0.53	684
295.7 K, 5200 kPa, x1 = 0.53	685.5
295.7 K, 7300 kPa, x1 = 0.53	688.3
295.7 K, 8600 kPa, x1 = 0.53	689.5
295.7 K, 10700 kPa, x1 = 0.53	691.9
295.7 K, 13500 kPa, x1 = 0.53	694.7
295.7 K, 23900 kPa, x1 = 0.53	704.6
295.7 K, 31000 kPa, x1 = 0.53	710.9
295.7 K, 37900 kPa, x1 = 0.53	716
295.7 K, 44100 kPa, x1 = 0.53	720.7
295.7 K, 51800 kPa, x1 = 0.53	726.4
295.7 K, 58300 kPa, x1 = 0.53	730.4
295.7 K, 63200 kPa, x1 = 0.53	733.6
295.7 K, 67000 kPa, x1 = 0.53	735.9
295.9 K, 200 kPa, x1 = 0.1159	797.6
295.9 K, 300 kPa, x1 = 0.1159	798.9
295.9 K, 600 kPa, x1 = 0.1159	799.5
295.9 K, 1300 kPa, x1 = 0.1159	800.1
295.9 K, 2000 kPa, x1 = 0.1159	800.7
295.9 K, 3500 kPa, x1 = 0.1159	802
295.9 K, 7200 kPa, x1 = 0.1159	805.2
295.9 K, 10200 kPa, x1 = 0.1159	807.7
295.9 K, 13500 kPa, x1 = 0.1159	810.3
296.4 K, 1000 kPa, x1 = 0.7612	606.8
296.4 K, 1400 kPa, x1 = 0.7612	610
296.4 K, 2200 kPa, x1 = 0.7612	611.2
296.4 K, 3300 kPa, x1 = 0.7612	613.2
296.4 K, 5200 kPa, x1 = 0.7612	616.4
296.4 K, 6900 kPa, x1 = 0.7612	619.3
296.4 K, 10300 kPa, x1 = 0.7612	624.6
296.4 K, 10400 kPa, x1 = 0.7612	624.6
296.4 K, 13800 kPa, x1 = 0.7612	629.7
296.4 K, 17200 kPa, x1 = 0.7612	634.4
296.4 K, 24100 kPa, x1 = 0.7612	643.5
296.4 K, 31100 kPa, x1 = 0.7612	652.1
296.4 K, 37700 kPa, x1 = 0.7612	659.4
296.4 K, 44500 kPa, x1 = 0.7612	666
296.4 K, 51400 kPa, x1 = 0.7612	672.7
296.4 K, 57800 kPa, x1 = 0.7612	678
296.4 K, 62900 kPa, x1 = 0.7612	682
296.4 K, 66900 kPa, x1 = 0.7612	685
324.6 K, 1700 kPa, x1 = 0.7612	572
324.6 K, 1900 kPa, x1 = 0.7612	572.3
324.6 K, 2600 kPa, x1 = 0.7612	574.4
324.6 K, 3600 kPa, x1 = 0.7612	576.9
324.6 K, 5300 kPa, x1 = 0.7612	580.5
324.6 K, 7000 kPa, x1 = 0.7612	584.1
324.6 K, 10500 kPa, x1 = 0.7612	591.1
324.6 K, 17400 kPa, x1 = 0.7612	603.7
324.6 K, 24200 kPa, x1 = 0.7612	614.4
324.6 K, 30900 kPa, x1 = 0.7612	623.8
324.6 K, 37800 kPa, x1 = 0.7612	632.7
324.6 K, 44500 kPa, x1 = 0.7612	640.5
324.6 K, 51500 kPa, x1 = 0.7612	648.4
324.6 K, 58400 kPa, x1 = 0.7612	655.7
324.6 K, 63100 kPa, x1 = 0.7612	660.3
324.6 K, 67000 kPa, x1 = 0.7612	664.1
324.8 K, 300 kPa, x1 = 0.1159	771
324.8 K, 600 kPa, x1 = 0.1159	771.6
324.8 K, 1100 kPa, x1 = 0.1159	772.2
324.8 K, 1600 kPa, x1 = 0.1159	772.8
324.8 K, 2000 kPa, x1 = 0.1159	773.4
324.8 K, 2500 kPa, x1 = 0.1159	774
324.8 K, 3300 kPa, x1 = 0.1159	774.6
324.8 K, 5000 kPa, x1 = 0.1159	776.3
324.8 K, 7000 kPa, x1 = 0.1159	778.7
324.8 K, 10200 kPa, x1 = 0.1159	781.7
324.8 K, 13500 kPa, x1 = 0.1159	784.7
324.8 K, 16900 kPa, x1 = 0.1159	787.7
324.8 K, 20400 kPa, x1 = 0.1159	791.4
324.8 K, 23600 kPa, x1 = 0.1159	793.9
324.8 K, 31300 kPa, x1 = 0.1159	800.7
324.8 K, 37800 kPa, x1 = 0.1159	805.8
374.3 K, 3700 kPa, x1 = 0.7612	493.5
374.3 K, 3800 kPa, x1 = 0.7612	494.1
374.3 K, 5300 kPa, x1 = 0.7612	503.1
374.3 K, 6900 kPa, x1 = 0.7612	511.6
374.3 K, 8400 kPa, x1 = 0.7612	518.3
374.3 K, 10400 kPa, x1 = 0.7612	526
374.3 K, 17200 kPa, x1 = 0.7612	547.4
374.3 K, 23900 kPa, x1 = 0.7612	562.2
374.3 K, 30800 kPa, x1 = 0.7612	574.7
374.3 K, 37700 kPa, x1 = 0.7612	586.8
374.3 K, 44200 kPa, x1 = 0.7612	596.6
375.3 K, 700 kPa, x1 = 0.1159	723.9
375.3 K, 900 kPa, x1 = 0.1159	724.4
375.3 K, 1400 kPa, x1 = 0.1159	725.5
375.3 K, 2000 kPa, x1 = 0.1159	726.5
375.3 K, 2500 kPa, x1 = 0.1159	727.6
375.3 K, 3400 kPa, x1 = 0.1159	728.6
375.3 K, 5200 kPa, x1 = 0.1159	731.2
375.3 K, 6900 kPa, x1 = 0.1159	733.8
375.3 K, 10100 kPa, x1 = 0.1159	737.6
375.3 K, 17200 kPa, x1 = 0.1159	746.2
375.3 K, 23700 kPa, x1 = 0.1159	753.4
375.3 K, 30800 kPa, x1 = 0.1159	760.7
375.3 K, 37600 kPa, x1 = 0.1159	767
375.4 K, 2600 kPa, x1 = 0.53	588.6
375.4 K, 2900 kPa, x1 = 0.53	589.8
375.4 K, 4300 kPa, x1 = 0.53	593.6
375.4 K, 6900 kPa, x1 = 0.53	600.6
375.4 K, 9200 kPa, x1 = 0.53	607.4
375.4 K, 10500 kPa, x1 = 0.53	609.9
375.4 K, 17900 kPa, x1 = 0.53	622.3
375.4 K, 23800 kPa, x1 = 0.53	632
375.4 K, 24100 kPa, x1 = 0.53	631.5
375.4 K, 30900 kPa, x1 = 0.53	641.7
375.4 K, 37900 kPa, x1 = 0.53	651.5
375.4 K, 44800 kPa, x1 = 0.53	659.4
375.4 K, 51200 kPa, x1 = 0.53	666.4
375.4 K, 58800 kPa, x1 = 0.53	674.3
375.4 K, 63200 kPa, x1 = 0.53	678.1
375.4 K, 67400 kPa, x1 = 0.53	682

Reference: the NIST ThermoML archive (doi:10.1016/j.fluid.2017.06.022)
